Earlier results, collected in patent US6995149B1, “Contraceptive process and kit for female mammals, comprising a combination of gestagen and oestrogen” (Schering AG, priority 1995, dated 2006).

What was measured:
women = conditions: daily dose of 70 to 80 μg, pure gestagen preparation; in almost all women
[1] = very small doses; ovulation is not always inhibited

C#C[C@]1(O)CC[C@H]2[C@@H]3CCC4=CC(=O)CC[C@@H]4[C@H]3C(=C)C[C@@]21CC [3-ketodesogestrel]
inhibition of ovulation (women): In almost all women, these dosages cause inhibition of ovulation

CC(=O)O[C@]1(C(C)=O)CC[C@H]2[C@@H]3C=C(Cl)C4=CC(=O)CC[C@]4(C)[C@H]3CC[C@@]21C [chloromadinone acetate]
contraceptive protection [1]: afforded contraceptive protection

C#C[C@]1(O)CC[C@H]2[C@@H]3CCC4=CCCC[C@@H]4[C@H]3C(=C)C[C@@]21CC [desogestrel]
inhibition of ovulation (women): In almost all women, these dosages cause inhibition of ovulation
